# Test results as given in patent US9376429B2, “Sodium channel blockers, preparation method thereof and use thereof” (Daewoong Pharmaceutical Co., Ltd., priority 2012, dated 2016).
# pIC50: −log10 of the molar value.
# Target: T1, sodium ion channel (Nav1.7) (Homo sapiens, UniProt Q15858)
# T1 construct: host or cells: HEK293
# Assay: Blocking effect against sodium ion channel (Nav1.7), IonFlux16 auto patch clamp, hNav1.7 HEK293 cells
# Type: cell-based
# Settings: peak current after 50 seconds treatment, eight concentrations
# Method: In order to measure the activities of the inventive compounds as antagonists, an experiment on a blocking effect against the sodium ion channel (Nav1.7) was carried out as follows.
# The hNav1.7 HEK293 cell line used was a cell line having a human sodium ion channel 1.7 gene (type IX voltage-gated sodium channel alpha subunit) in human embryonic kidney (HEK) 293 cells and was purchased from Millipore. The medium used was prepared by adding 1% 100×NEAA and 10% heat inactivated FBS to DMEM F-12 and adding 1% P/S as an antibiotic thereto. G-418 as a […] was added during subculture, and the hNav1.7 HEK293 cells were cultured to a confluence of about 80% in a T75 flask in a 5% CO2 incubator at 37° C. for 2 or 3 days and detached from the flask by treatment with 0.25% trypsin solution. Then, the cells were collected by centrifugation and used in the experiment.
# The compounds prepared in the Examples of the present invention were dissolved in dimethyl sulfoxide (DMSO) and used in the experiment. 90 mM and 10 mM DMSO stock solutions were prepared from each of the compounds and diluted in an extracellular solution (4 mM KCl, 138 mM NaCl, 1 mM MgCl2, 1.8 mM CaCl2, 5.6 mM glucose, 10 mM HEPES, pH 7.45) at various concentrations so that the final concentration of each compound in DMSO was 0.3% or less.
# To measure the sodium ion channel blocking effect, an IonFlux16 Auto patch clamp system (Fluxion, Inc.) and a plate for exclusive use were used. The cells were distributed in an extracellular solution (4 mM KCl, 138 mM NaCl, 1 mM MgCl2, 1.8 mM CaCl2, 5.6 mM glucose, 10 mM HEPES, pH 7.45), and then dispensed in the specified region of the plate, and each of the prepared compound samples was diluted at various concentrations, and then dispensed in the specified region of the plate.
# Specifically, eight concentrations per compound were set, and percent inhibition was determined by calculating the percentage of inhibition of the peak current, generated after treating the cells with each concentration of the compound for 50 seconds, relative to the peak current generated before treatment with the compound, and the IC50 value was calculated using the Sigma plot program. In Table 2 below, the percent inhibition of Nav1.7 is rated as follows: […]
# T1 sequence (Q15858 whole entry): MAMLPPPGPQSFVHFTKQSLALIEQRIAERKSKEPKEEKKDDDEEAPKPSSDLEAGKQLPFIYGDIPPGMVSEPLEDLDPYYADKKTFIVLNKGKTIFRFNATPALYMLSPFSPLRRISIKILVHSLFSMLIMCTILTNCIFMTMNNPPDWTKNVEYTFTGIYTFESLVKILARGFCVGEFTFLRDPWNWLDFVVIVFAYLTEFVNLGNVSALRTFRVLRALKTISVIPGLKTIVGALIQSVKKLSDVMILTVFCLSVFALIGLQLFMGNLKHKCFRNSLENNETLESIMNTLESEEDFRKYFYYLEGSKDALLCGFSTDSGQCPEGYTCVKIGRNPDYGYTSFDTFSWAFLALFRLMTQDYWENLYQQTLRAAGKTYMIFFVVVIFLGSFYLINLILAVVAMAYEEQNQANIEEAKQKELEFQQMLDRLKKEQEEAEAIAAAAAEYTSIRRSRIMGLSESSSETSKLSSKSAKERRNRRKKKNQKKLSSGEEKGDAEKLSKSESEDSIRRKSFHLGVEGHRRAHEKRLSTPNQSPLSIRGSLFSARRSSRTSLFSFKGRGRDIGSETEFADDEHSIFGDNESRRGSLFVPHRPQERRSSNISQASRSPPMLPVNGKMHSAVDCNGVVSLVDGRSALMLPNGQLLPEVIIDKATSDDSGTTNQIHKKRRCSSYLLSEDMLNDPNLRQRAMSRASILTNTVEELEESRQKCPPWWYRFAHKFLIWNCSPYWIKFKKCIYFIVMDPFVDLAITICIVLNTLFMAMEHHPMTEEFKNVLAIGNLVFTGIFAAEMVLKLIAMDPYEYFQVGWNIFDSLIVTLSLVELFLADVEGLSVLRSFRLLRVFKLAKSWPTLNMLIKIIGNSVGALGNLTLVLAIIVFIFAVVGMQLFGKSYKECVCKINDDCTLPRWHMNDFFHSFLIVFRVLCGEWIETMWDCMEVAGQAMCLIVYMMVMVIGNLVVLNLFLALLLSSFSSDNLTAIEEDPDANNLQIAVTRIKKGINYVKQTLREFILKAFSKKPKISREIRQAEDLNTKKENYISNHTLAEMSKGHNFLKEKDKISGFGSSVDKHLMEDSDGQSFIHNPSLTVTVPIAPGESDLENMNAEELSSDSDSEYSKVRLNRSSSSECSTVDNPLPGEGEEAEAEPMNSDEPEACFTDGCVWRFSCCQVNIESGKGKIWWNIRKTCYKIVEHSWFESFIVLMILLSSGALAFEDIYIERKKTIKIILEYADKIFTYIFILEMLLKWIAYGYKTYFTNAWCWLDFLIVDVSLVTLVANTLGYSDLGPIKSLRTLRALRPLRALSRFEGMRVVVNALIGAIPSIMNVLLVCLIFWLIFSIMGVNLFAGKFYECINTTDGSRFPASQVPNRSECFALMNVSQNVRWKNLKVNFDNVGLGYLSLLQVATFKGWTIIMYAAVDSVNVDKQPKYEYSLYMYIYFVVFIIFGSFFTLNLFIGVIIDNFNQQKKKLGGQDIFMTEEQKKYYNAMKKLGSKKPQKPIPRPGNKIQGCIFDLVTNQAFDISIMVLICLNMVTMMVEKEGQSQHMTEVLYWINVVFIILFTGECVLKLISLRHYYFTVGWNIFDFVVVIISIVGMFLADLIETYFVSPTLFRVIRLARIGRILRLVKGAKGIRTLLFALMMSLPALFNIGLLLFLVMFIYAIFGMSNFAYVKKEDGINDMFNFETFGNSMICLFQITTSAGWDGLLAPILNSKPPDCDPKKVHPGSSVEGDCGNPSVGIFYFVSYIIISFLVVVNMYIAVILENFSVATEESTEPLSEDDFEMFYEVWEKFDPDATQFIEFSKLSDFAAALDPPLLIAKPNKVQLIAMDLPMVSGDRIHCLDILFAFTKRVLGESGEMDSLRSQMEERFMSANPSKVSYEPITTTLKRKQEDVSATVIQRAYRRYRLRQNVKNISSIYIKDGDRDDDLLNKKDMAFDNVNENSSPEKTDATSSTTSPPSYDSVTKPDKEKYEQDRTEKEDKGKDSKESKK
row,pIC50,SMILES
1,< 7.00,"N#Cc1cc(S(=O)(=O)Nc2nccs2)ccc1Oc1cnc(-c2cccc(C(F)(F)F)c2)cc1-c1ccoc1 [Example 8, 3-cyano-4-(4-(furan-3-yl)-6-(3-(trifluoromethyl)phenyl)pyridin-3-yloxy)-N-(thiazol-2-yl)benzenesulfonamide]"
2,< 7.00,"O=S(=O)(Nc1nccs1)c1ccc(Oc2cnc(-c3ccoc3)cc2-c2ccoc2)cc1 [Example 28, 4-((4,6-di(furan-3-yl)pyridin-3-yl)oxy)-N-(thiazol-2-yl)benzenesulfonamide]"
3,< 7.00,"N#Cc1cc(S(=O)(=O)Nc2nccs2)ccc1Oc1cnc(-c2cccnc2)cc1-c1ccoc1 [Example 13, 3-cyano-4-(4-(furan-3-yl)-2,3′-bipyridin-5-yloxy)-N-(thiazol-2-yl)benzenesulfonamide]"
4,< 7.00,"Cn1nccc1-c1nc(-c2ccnc(F)c2)ccc1Oc1ccc(S(=O)(=O)Nc2nccs2)cc1C#N [Example 107, 3-cyano-4-((2′-fluoro-6-(1-methyl-1H-pyrazol-5-yl)-[2,4′-bipyridin]-5-yl)oxy)-N-(thiazol-2-yl)benzenesulfonamide]"
5,< 7.00,"N#Cc1cc(S(=O)(=O)Nc2cscn2)ccc1Oc1cnc(-c2cccc(F)c2)cc1-c1cncnc1 [Example 92, 3-cyano-4-((6-(3-fluorophenyl)-4-(pyrimidin-5-yl)pyridin-3-yl)oxy)-N-(thiazol-4-yl)benzenesulfonamide]"
6,< 7.00,"O=S(=O)(Nc1nccs1)c1ccc(C(O)c2ccc(Cl)cc2-c2cccnc2)cc1 (centres unmarked) [Example 148, 4-((4-chloro-2-(pyridin-3-yl)phenyl)(hydroxy)methyl)-N-(thiazol-2-yl)benzenesulfonamide]"
7,> 7.30,"N#Cc1cc(S(=O)(=O)Nc2nccs2)ccc1Oc1ccc(-c2ccc(F)cc2)nc1-c1ccoc1 [Example 109, 3-cyano-4-((6-(4-fluorophenyl)-2-(furan-3-yl)pyridin-3-yl)oxy)-N-(thiazol-2-yl)benzenesulfonamide]"
8,< 7.00,"Cn1cc(-c2cc(-c3ccnc(F)c3)ncc2Oc2cc(F)c(S(=O)(=O)Nc3cscn3)cc2Cl)cn1 [Example 68, 5-chloro-2-fluoro-4-((2′-fluoro-4-(1-methyl-1H-pyrazol-4-yl)-[2,4′-bipyridin]-5-yl)oxy)-N-(thiazol-4-yl)benzenesulfonamide 2,2,2-trifluoroacetate]"
9,7.00 to 7.29,"Cn1nccc1-c1nc(-c2cccc(F)c2)ccc1Oc1ccc(S(=O)(=O)Nc2nccs2)cc1C#N [Example 117, 3-cyano-4-((6-(3-fluorophenyl)-2-(1-methyl-1H-pyrazol-5-yl)pyridin-3-yl)oxy)-N-(thiazol-2-yl)benzenesulfonamide]"
10,< 7.00,"O=S(=O)(Nc1nccs1)c1ccc(C(O)c2ccc(-c3ccoc3)cc2-c2ccoc2)cc1 (centres unmarked) [Example 149, 4-((2,4-di(furan-3-yl)phenyl)(hydroxy)methyl)-N-(thiazol-2-yl)benzenesulfonamide]"
11,< 7.00,"O=S(=O)(Nc1cscn1)c1cc(F)c(Oc2cnc(-c3cccc(F)c3)cc2-c2cccnc2)cc1F [Example 87, 2,5-difluoro-4-((6′-(3-fluorophenyl)-[3,4′-bipyridin]-3′-yl)oxy)-N-(thiazol-4-yl)benzenesulfonamide]"
12,< 7.00,"Cn1cc(-c2cc(-c3ccccc3F)ncc2Oc2cc(F)c(S(=O)(=O)Nc3cscn3)cc2Cl)cn1 [Example 63, 5-chloro-2-fluoro-4-((6-(2-fluorophenyl)-4-(1-methyl-1H-pyrazol-4-yl)pyridin-3-yl)oxy)-N-(thiazol-4-yl)benzenesulfonamide 2,2,2-trifluoroacetate]"
13,< 7.00,"N#Cc1cc(S(=O)(=O)Nc2cscn2)ccc1Oc1cnc(-c2ccc(C(F)(F)F)c(F)c2)cc1-c1cncnc1 [Example 94, 3-cyano-4-((6-(3-fluoro-4-(trifluoromethyl)phenyl)-4-(pyrimidin-5-yl)pyridin-3-yl)oxy)-N-(thiazol-4-yl)benzenesulfonamide]"
14,< 7.00,"O=S(=O)(Nc1cscn1)c1cc(Cl)c(Oc2cnc(-c3cccnc3F)cc2-c2ccoc2)cc1F [Example 56, 5-chloro-2-fluoro-4-((2′-fluoro-4-(furan-3-yl)-[2,3′-bipyridin]-5-yl)oxy)-N-(thiazol-4-yl)benzenesulfonamide]"
15,< 7.00,"Cn1nccc1-c1nc(-c2cccnc2F)ccc1Oc1ccc(S(=O)(=O)Nc2nccs2)cc1C#N [Example 116, 3-cyano-4-((2′-fluoro-6-(1-methyl-1H-pyrazol-5-yl)-[2,3′-bipyridin]-5-yl)oxy)-N-(thiazol-2-yl)benzenesulfonamide]"
16,< 7.00,"Cn1cc(-c2cc(-c3cccnc3F)ncc2Oc2cc(F)c(S(=O)(=O)Nc3cscn3)cc2Cl)cn1 [Example 69, 5-chloro-2-fluoro-4-((2′-fluoro-4-(1-methyl-1H-pyrazol-4-yl)-[2,3′-bipyridin]-5-yl)oxy)-N-(thiazol-4-yl)benzenesulfonamide 2,2,2-trifluoroacetate]"
17,< 7.00,"N#Cc1cc(S(=O)(=O)Nc2nccs2)ccc1Oc1cnc(-c2cn[nH]c2)cc1-c1ccoc1 [Example 45, 3-cyano-4-((4-(furan-3-yl)-6-(1H-pyrazol-4-yl)pyridin-3-yl)oxy)-N-(thiazol-2-yl)benzenesulfonamide]"
18,< 7.00,"N#Cc1cc(S(=O)(=O)Nc2nccs2)ccc1Oc1cnc(-c2ccccc2)cc1-c1cccnc1F [Example 29, 3-cyano-4-((2-fluoro-6′-phenyl-[3,4′-bipyridin]-3′-yl)oxy)-N-(thiazol-2-yl)benzenesulfonamide]"
19,< 7.00,"O=S(=O)(Nc1nccs1)c1ccc(C(O)c2cccnc2-c2ccoc2)c(F)c1 (centres unmarked) [Example 155, 3-fluoro-4-((2-(furan-3-yl)pyridin-3-yl)(hydroxy)methyl)-N-(thiazol-2-yl)benzenesulfonamide]"
20,< 7.00,"O=S(=O)(Nc1cscn1)c1cc(Cl)c(Oc2cnc(-c3ccccc3F)cc2-c2ccoc2)cc1F [Example 60, 5-chloro-2-fluoro-4-((6-(2-fluorophenyl)-4-(furan-3-yl)pyridin-3-yl)oxy)-N-(thiazol-4-yl)benzenesulfonamide]"
21,< 7.00,"O=S(=O)(Nc1cscn1)c1cc(F)c(Oc2cnc(-c3cccc(F)c3)cc2-c2cncnc2)cc1F [Example 95, 2,5-difluoro-4-((6-(3-fluorophenyl)-4-(pyrimidin-5-yl)pyridin-3-yl)oxy)-N-(thiazol-4-yl)benzenesulfonamide]"
22,< 7.00,"O=S(=O)(Nc1nccs1)c1ccc(C(O)c2ccc(Cl)cc2-c2ccoc2)c(F)c1 (centres unmarked) [Example 140, 4-((4-chloro-2-(furan-3-yl)phenyl)(hydroxy)methyl)-3-fluoro-N-(thiazol-2-yl)benzenesulfonamide]"
23,< 7.00,"Cn1cc(-c2cc(-c3ccc(F)nc3)ncc2Oc2cc(F)c(S(=O)(=O)Nc3cscn3)cc2Cl)cn1 [Example 70, 5-chloro-2-fluoro-4-((6′-fluoro-4-(1-methyl-1H-pyrazol-4-yl)-[2,3′-bipyridin]-5-yl)oxy)-N-(thiazol-4-yl)benzenesulfonamide 2,2,2-trifluoroacetate]"
24,< 7.00,"Cn1nccc1-c1nc(-c2ccc(F)cc2)ccc1Oc1cc(F)c(S(=O)(=O)Nc2cscn2)cc1Cl [Example 135, 5-chloro-2-fluoro-4-((6-(4-fluorophenyl)-2-(1-methyl-1H-pyrazol-5-yl)pyridin-3-yl)oxy)-N-(thiazol-4-yl)benzenesulfonamide]"
25,7.00 to 7.29,"N#Cc1cc(S(=O)(=O)Nc2nccs2)ccc1Oc1ccc(-c2ccc(F)nc2)nc1-c1ccoc1 [Example 104, 3-cyano-4-((6′-fluoro-6-(furan-3-yl)-[2,3′-bipyridin]-5-yl)oxy)-N-(thiazol-2-yl)benzenesulfonamide]"
26,< 7.00,"N#Cc1cc(S(=O)(=O)Nc2nccs2)ccc1Oc1cnc(-c2ccccc2)cc1-c1ccnc(Cl)c1Cl [Example 36, 3-cyano-4-((2′,3′-dichloro-6-phenyl-[4,4′-bipyridin]-3-yl)oxy)-N-(thiazol-2-yl)benzenesulfonamide]"
27,7.00 to 7.29,"N#Cc1cc(S(=O)(=O)Nc2nccs2)ccc1Oc1ccc(-c2ccc(F)nc2F)nc1-c1ccoc1 [Example 127, 3-cyano-4-((2′,6′-difluoro-6-(furan-3-yl)-[2,3′-bipyridin]-5-yl)oxy)-N-(thiazol-2-yl)benzenesulfonamide]"
28,7.00 to 7.29,"O=S(=O)(Nc1cscn1)c1cc(Cl)c(Oc2cnc(-c3cccc(F)c3)cc2-c2ccnc(N3CCOCC3)c2)cc1F [Example 101, 5-chloro-2-fluoro-4-((6-(3-fluorophenyl)-2′-morpholino-[4,4′-bipyridin]-3-yl)oxy)-N-(thiazol-4-yl)benzenesulfonamide]"
29,< 7.00,"O=S(=O)(Nc1nccs1)c1ccc(C(O)c2ccc(Cl)cc2-c2cccnc2)c(F)c1 (centres unmarked) [Example 145, 4-((4-chloro-2-(pyridin-3-yl)phenyl)(hydroxy)methyl)-3-fluoro-N-(thiazol-2-yl)benzenesulfonamide]"
